Measurements reported in patent US6908919B2, “Substituted polycyclic aryl and heteroaryl pyrazinones useful for selective inhibition of the coagulation cascade” (Pharmacia Corporation, priority 1999, dated 2005).
Like-named read-outs stand apart in the source and are kept apart here.

Assays:
Human factor Xa = Human factor Xa (Homo sapiens, UniProt P00742); assay: Xa Assay; type: biochemical; design: purchased Enzyme Research Laboratories, South Bend Ind
[1] = molecular target: T1, recombinant soluble tissue factor and recombinant human factor VIIa (TF-VIIa) (Homo sapiens, UniProt P08709); assay: TF-VIIa Assay; type: biochemical; details: for IC50: read-out: IC50 TF-VIIa
T1 construct: conversion of coagulation factor VII to VIIa by Xa; purchased American Diagnostica, Greenwich Conn; host or cells: VIIa purchased; soluble TF made in house in E. coli
T1 sequence (P08709 61-212 limits assumed): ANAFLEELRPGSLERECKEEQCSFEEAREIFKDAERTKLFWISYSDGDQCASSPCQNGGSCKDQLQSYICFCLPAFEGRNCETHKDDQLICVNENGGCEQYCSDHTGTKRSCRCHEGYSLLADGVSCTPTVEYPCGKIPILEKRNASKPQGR
T1 sequence (P08709 213-466 limits assumed): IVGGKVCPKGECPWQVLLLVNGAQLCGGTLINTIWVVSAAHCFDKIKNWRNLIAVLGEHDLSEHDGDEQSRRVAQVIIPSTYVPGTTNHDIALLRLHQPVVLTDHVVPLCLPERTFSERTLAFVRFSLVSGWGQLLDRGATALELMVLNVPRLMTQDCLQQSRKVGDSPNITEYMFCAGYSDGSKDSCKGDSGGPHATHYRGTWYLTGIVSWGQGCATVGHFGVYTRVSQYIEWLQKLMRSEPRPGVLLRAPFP
T1 sequence (P13726 33-251 partner limits assumed): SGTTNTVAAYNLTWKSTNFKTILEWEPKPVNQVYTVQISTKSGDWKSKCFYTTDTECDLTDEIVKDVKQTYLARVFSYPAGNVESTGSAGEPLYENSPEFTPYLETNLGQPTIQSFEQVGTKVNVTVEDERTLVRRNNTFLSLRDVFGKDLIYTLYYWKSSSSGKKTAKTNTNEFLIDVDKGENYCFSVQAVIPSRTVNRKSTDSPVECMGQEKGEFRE

Human thrombin = Human thrombin (Homo sapiens, UniProt P00734); assay: biochemical; details: read-out: % Inhibition Thrombin II at 100 μM

Sequence of Human factor Xa (P00742 41-179 limits assumed): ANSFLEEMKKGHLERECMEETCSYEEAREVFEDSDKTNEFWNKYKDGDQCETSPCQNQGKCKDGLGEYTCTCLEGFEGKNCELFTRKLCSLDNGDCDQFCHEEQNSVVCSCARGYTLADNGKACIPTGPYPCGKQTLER
Sequence of Human factor Xa (P00742 235-488 limits assumed): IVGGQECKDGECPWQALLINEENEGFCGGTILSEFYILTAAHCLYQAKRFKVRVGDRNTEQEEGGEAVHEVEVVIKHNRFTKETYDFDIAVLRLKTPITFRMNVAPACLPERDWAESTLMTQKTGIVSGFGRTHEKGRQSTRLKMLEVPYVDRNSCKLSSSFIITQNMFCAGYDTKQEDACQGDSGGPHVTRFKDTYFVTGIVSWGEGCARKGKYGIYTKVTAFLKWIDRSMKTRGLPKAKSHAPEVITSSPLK

% Inhibition Factor Xa (100 µM) (Human factor Xa; inhibitor at 100 µM)	% Inhibition TF-VIIa (100 µM) ([1]; inhibitor at 100 µM)	Structure (SMILES)	other results
0%	0%	COc1ccc(-c2c(Cl)nc(NCc3ccccc3)c(=O)n2CC(=O)NCCc2ccncc2)cc1 [Example E-0033]	
6%	4%	COc1ccc(-c2c(Cl)nc(NCCc3ccc(Cl)cc3)c(=O)n2CC(=O)NCCc2cccnc2)cc1 [Example E-0107]	
3%	2%	COc1ccc(-c2c(Cl)nc(NCCc3cccc(Cl)c3)c(=O)n2CC(=O)NCCc2ccncc2)cc1 [Example E-0103]	
0%	0%	O=C(Cn1c(-c2ccc3c(c2)OCO3)c(Cl)nc(NCCc2cccc(Cl)c2)c1=O)NCCc1ccncc1 [Example E-0043]	
4%	4%	O=C(Cn1c(-c2cccc(Cl)c2)c(Cl)nc(NCCc2ccc(Cl)cc2)c1=O)NCCc1ccncc1 [Example E-0082]	
1%	0%	O=C(Cn1c(-c2ccc(Cl)cc2)c(Cl)nc(NCCc2ccc(Cl)cc2)c1=O)NCCc1ccncc1 [Example E-0020]	
0%	0%	O=C(Cn1c(-c2ccc3c(c2)OCO3)c(Cl)nc(NCCc2ccncc2)c1=O)NCCc1ccncc1 [Example E-0046]	
0%	0%	O=C(Cn1c(-c2ccc(Cl)cc2)c(Cl)nc(NCc2ccccc2)c1=O)NCCc1ccncc1 [Example E-0017]	
0%	0%	COc1ccc(-c2c(Cl)nc(NCCc3cccnc3)c(=O)n2CC(=O)NCCc2ccncc2)cc1 [Example E-0037]	
0%	0%	O=C(Cn1c(-c2ccc(Cl)cc2)c(Cl)nc(NCCc2ccc(Cl)cc2)c1=O)NCCc1ccncc1 [Example E-0028]	

The remaining lines, values behind:

Structure (SMILES)	% Inhibition Factor Xa (100 µM) (Human factor Xa; inhibitor at 100 µM)	% Inhibition TF-VIIa (100 µM) ([1]; inhibitor at 100 µM)	other results
N=C(N)c1ccc(CNC(=O)Cn2c(Cc3ccccc3)c(Cl)nc(NCCc3ccccc3)c2=O)cc1 [Example 20]			% Inhibition Factor Xa (30 µM) (Human factor Xa; at 30 µM inhibitor): 6% @ 30; % Inhibition TF-VIIa (30 µM) ([1]; at 30 µM inhibitor): 41% @ 30
CC(C)Nc1nc(Cl)c(-c2cc(N)cc(C(=O)NC(C)c3ccccc3)c2)n(CC(=O)NCc2ccc(C(=N)N)cc2)c1=O (centres unmarked) [Example 128-3]			inhibition at 100 µM (Human factor Xa; at 100 μM inhibitor): 40%; IC50 [1]: 0.0082 µM
O=C(Cn1c(-c2ccccc2)c(Cl)nc(NCCN2CCOCC2)c1=O)NCCc1ccncc1 [Example E-0015]	0%	0%	
N=C(N)c1ccc(C(O)CCCn2c(-c3cccc(N)c3)c(Cl)nc(NC3CCC3)c2=O)cc1 (centres unmarked) [Example 143]			inhibition at 100 µM (Human factor Xa; at 100 μM inhibitor): 30%; IC50 [1]: 43.2 µM
CC(C)Nc1nc(Cl)c(-c2cc(N)cc(C(=O)NCc3cccnc3)c2)n(CC(=O)NCc2ccc(C(=N)N)cc2)c1=O [Example 128-18]			inhibition at 100 µM (Human thrombin): 21%; IC50 [1]: 0.0185 µM
O=C(Cn1c(-c2ccc(-c3ccccc3)cc2)c(Cl)nc(NCc2ccncc2)c1=O)NCCc1ccncc1 [Example E-0056]			% Inhibition Factor Xa (100 µM) (Human factor Xa): 0%; % Inhibition TF-VIIa (100 µM) [1]: 0%
CCc1c(Cl)nc(NCCc2cccc(Cl)c2)c(=O)n1CC(=O)NCc1ccc(C(=N)N)cc1 [1471-62]			% Inhibition Factor Xa (30 µM) (Human factor Xa; at 30 µM inhibitor): 0%; % Inhibition TF-VIIa (30 µM) ([1]; at 30 µM inhibitor): 4%
C[C@H](Nc1nc(Cl)c(-c2cccc(N)c2)n(CC(=O)NCc2ccc(C(=N)N)cc2)c1=O)C(=O)O [Example 135]			% Inhibition Factor Xa at 100 μM (Human factor Xa; at 100 μM inhibitor): 6% at 100 μM; IC50 [1]: 6.4 µM
CC(C)Nc1nc(Cl)c(-c2cccc([N+](=O)[O-])c2)n(CC(=O)NCc2ccc(C(N)=NO)cc2)c1=O [Example 61]			% Inhibition Factor Xa (30 µM) (Human factor Xa; at 30 µM inhibitor): 0%; % Inhibition TF-VIIa (30 µM) ([1]; at 30 µM inhibitor): 1%
Nc1cccc(-c2c(Cl)nc(NC3CCC3)c(=O)n2CC(=O)NCCc2ccccc2)c1 [Example 89]			% Inhibition Factor Xa (30 µM) (Human factor Xa; at 30 µM inhibitor): 5% @ 30; % Inhibition TF-VIIa (30 µM) ([1]; at 30 µM inhibitor): 5% @ 30
N=C(N)c1ccc(CNC(=O)Cn2c(-c3ccc(-c4ccccc4)cc3)c(Cl)nc(NCCc3cccnc3)c2=O)cc1 [Example 21]			% Inhibition Factor Xa (30 µM) (Human factor Xa): 21% @ 30; % Inhibition TF-VIIa (30 µM) [1]: 8% @ 30
Cc1c(Cl)nc(NCCc2ccncc2)c(=O)n1CC(=O)NCCc1ccncc1 [Example E-0006]	0%	2%	
O=C(Cn1c(-c2ccc(-c3ccccc3)cc2)c(Cl)nc(NCCc2cccnc2)c1=O)NCCc1ccncc1 [Example E-0053]			% Inhibition Factor Xa (100 µM) (Human factor Xa): 0%; % Inhibition TF-VIIa (100 µM) [1]: 0%
O=C(Cn1c(Cc2ccccc2)c(Cl)nc(NCc2ccncc2)c1=O)NCCc1ccncc1 [Example E-0064]	0%	0%	
O=C(Cn1c(-c2ccc3c(c2)OCO3)c(Cl)nc(NCc2ccccc2)c1=O)NCCc1ccncc1 [Example E-0041]	0%	0%	
